Entries after “also recorded” stand apart in the source; their conditions may differ.
What was measured:
physchem = type: physicochemical; settings: buffer, pH 7.4
Experimental: The conjugation reaction of PMLA with PEG, TMZH, LLL and LOEt was followed by thin layer chromatography (TLC) on precoated silica gel 60 F254 aluminum sheets (Merck, Darmstadt, Germany) and visualization of spots by UV light and/or by ninhydrin staining. The concentration of free or conjugated TMZH was monitored by reading A328 and using known amounts of TMZ or TMZH standards. Size exclusion chromatography was performed on LACHROM ELITE, an analytical High Performance Liquid Chromatograph (HPLC) system with Diode Array Detector L 2455 (Hitachi, Pleasanton, Calif., USA), and Mw was measured using BioSep-SEC-S 3000 (300×7.80 mm) (Phenomenex, Torrance, Calif., USA) with 50 mM sodium phosphate buffer pH 6.8 and polystyrene sulfonates as molecular weight standards. Thiol residues attached to PMLA were assayed by the method of Ellman. Enzyme-linked immunosorbent assay (ELISA) was used to determine the functional activity of conjugated antibody using a Protein Detector ELISA Kit (KPL, Inc., Gaithersburg, Mass., USA). Human TfR ectodomain used as antigen was obtained from Protein Expression Center, California Institute of Technology, Pasadena, USA.
TMZ is a prodrug and undergoes spontaneous conversion to the active alkylating agent at neutral or alkaline pH. Half-lives were measured at physiological pH 7.4 in PBS and summarized in Table I. The decomposition of free and conjugated TMZH by hydrolytic ring opening (Chart 1) was a first order reaction for free TMZ or TMZH and conjugated TMZH (data not shown). […] Similar data have been reported for TMZ conjugated with small carbon chains (6). No detectable decomposition was observed during 24 h at pH 5.0 at RT.

MDA-MB-231 = experiment: Cell viability (MTS); type: cell-based, human; settings: MDA-MB-231, 24 h exposure, viability on day 7, untreated = 100%
Experimental: (§1) Primary glioma cell lines U87MG and T98G, and invasive breast carcinoma cell lines MDA-MB-231 and MDA-MB-468 were obtained from American Type Culture Collection (ATCC, Manassas, Va., USA) USA. U87MG and T98G cells were cultured in MEM supplemented with 10% fetal bovine serum, 1% MEM NEAA, 1 mM sodium pyruvate and 2 mM L-glutamine. For MDA-MB-231 and MDA-MB-468, Leibovitz's L-15 medium with 10% fetal bovine serum was used. Cells were seeded at 10^3 per well (0.1 ml) in 96-well flat-bottomed plates and incubated overnight at 37° C. in humid atmosphere with 5% CO2 (MDA-MB-231 and MDA-MB-468 were incubated without CO2). After exposure to synthesized conjugates for 24 h, medium was replaced every 48 h. Cell viability was measured on day 5 for T98G and day 7 for the rest of the cell lines using the CELLTITER 96 Aqueous One Solution Cell Proliferation Assay kit (Cat. No. PR-G3580; Promega, Madison, Wis., USA). Yellow [3-(4,5-dimethylthiazol-2-yl)-5-(3-carboxymethoxyphenyl)-2-(4-sulfophenyl-)-2H-tetrazolium, inner salt] (MTS) is bioreduced by cells into formazan that is soluble in the tissue culture medium. The absorbance reading at 490 nm from the 96-well plates is directly proportional to the number of living cells (32). The viability of the untreated cells was taken as 100%. The results shown are the means±standard deviation of three independent measurements. Data were analyzed by statistical software GRAPHPAD PRISM 3.0.

MDA-MB-468 = experiment: Cell viability (MTS); type: cell-based, human; settings: MDA-MB-468, 24 h exposure, viability on day 7, untreated = 100%
Experimental: as §1

T98G = experiment: Cell viability (MTS); type: cell-based, human; settings: 24 h exposure, viability on day 5, untreated = 100%
Experimental: as §1

U87MG = experiment: Cell viability (MTS); type: cell-based, human
Experimental: as §1

Row | SMILES | Half-life of TMZ (physchem) [h] | half-life (physchem) [h] | effect on cell viability (MDA-MB-231) | effect on cell viability (MDA-MB-468) | effect on cell viability (T98G) | effect on cell viability (U87MG; 24 h exposure, viability on day 7, untreated = 100%) | order of increasing potency on cell viability (U87MG; FIG. 6a)
1 | Cn1nnc2c(C(N)=O)ncn2c1=O [TMZ, temozolomide] | 1.8 | 1.8 ± 0.1 | inactive; also recorded: did not change | inactive; also recorded: ineffective at all concentrations below 130 μM; also recorded: did not change | inactive; also recorded: did not change | stronger effect on U87MG cells than the nanoconjugates; also recorded: responded | P/PEG(2%)/LLL(40%)/TMZH(17%)/IgG(0.25%)<P/PEG(2%)/LLL(40%)/TMZH(17%)<P/PEG(2%)/LLL(40%)/TMZH(17%)/HuTfR mAb(0.25%)<TMZ
2 | Cn1nnc2c(C(=O)NN)ncn2c1=O [TMZH, temozolomide hydrazide] |  | 1.98 ± 0.1 |  |  |  |  | 

From US9629919B2, “Drug delivery of temozolomide for systemic based treatment of cancer” (CEDARS-SINAI MEDICAL CENTER, priority 2009, dated 2017)
